Source: patent publication US20100041615A1 (Medac Gesellschaft Fur Klinische Spezialpraparate MBH, priority 2006, published 2010)
Starred links: 1 amine or outer side, 2 acyl side, 3 side chain; linkers in the order of their positions; H or OH if unused. Non-standard residues stand in square brackets, D forms with d. Residues, ends and D or L forms follow the SMILES beside them. Groups on a side chain read outwards from the residue. *: point of attachment. γ‑MTX = gamma-methotrexate, CN(Cc1cnc2nc(N)nc(N)c2n1)c1ccc(C(=O)N[C@@H](CCC(=O)*)C(=O)O)cc1; DAMPA = CN(Cc1cnc2nc(N)nc(N)c2n1)c1ccc(C(=O)*)cc1; Hexanoyl(6-maleimido) = O=C1C=CC(=O)N1CCCCCC(=O)*; γGlu = O=C(O)[C@H](CCC(=O)[*:2])N[*:1]

Key:
[1] = tested on: human cathepsin B; assay: human cathepsin B (2.1 U) in buffer (50 mM sodium acetate, 100 mM NaCl, 4 mM EDTA*2 Na, 8 mM L-cysteine, pH 5.0); conditions: 37° C., up to 24 hours
[2] = tested on: human plasma plasmin; assay: human plasma plasmin (370 mU) in buffer (4 mM sodium phosphate, 150 mM NaCl, pH 7.4); conditions: 37° C., up to 20 hours
[3] = OVCAR-3 tumor homogenate (homogenate of a human ovarian xenograft); conditions: human ovarian xenograft (OVCAR-3), 37° C., up to four hours
[4] = target: HSA (Homo sapiens, UniProt P02768); assay: Bonding to HSA in human plasma (C18-RP-HPLC)
HSA, sequence (P02768 25-609): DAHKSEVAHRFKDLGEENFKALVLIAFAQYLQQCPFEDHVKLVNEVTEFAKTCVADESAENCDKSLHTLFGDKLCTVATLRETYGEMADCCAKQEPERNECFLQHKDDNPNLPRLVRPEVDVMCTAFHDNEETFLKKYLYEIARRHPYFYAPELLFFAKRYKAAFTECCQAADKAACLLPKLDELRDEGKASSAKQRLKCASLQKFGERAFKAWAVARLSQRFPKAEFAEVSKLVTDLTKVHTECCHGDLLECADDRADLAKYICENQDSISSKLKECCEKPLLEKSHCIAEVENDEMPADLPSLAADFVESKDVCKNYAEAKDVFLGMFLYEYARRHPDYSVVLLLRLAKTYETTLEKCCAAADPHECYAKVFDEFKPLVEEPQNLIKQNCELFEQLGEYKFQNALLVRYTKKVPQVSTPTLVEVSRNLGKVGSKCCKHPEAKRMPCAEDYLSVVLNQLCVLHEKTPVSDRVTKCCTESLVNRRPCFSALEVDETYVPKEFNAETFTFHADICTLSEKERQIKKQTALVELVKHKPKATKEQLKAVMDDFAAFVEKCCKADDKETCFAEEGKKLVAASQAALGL

[5] = target: human plasma plasmin (Homo sapiens, UniProt P00747); assay type: biochemical; conditions: pH 7.4
human plasma plasmin (Homo sapiens, UniProt P00747), sequence (P00747 581-810 limits assumed): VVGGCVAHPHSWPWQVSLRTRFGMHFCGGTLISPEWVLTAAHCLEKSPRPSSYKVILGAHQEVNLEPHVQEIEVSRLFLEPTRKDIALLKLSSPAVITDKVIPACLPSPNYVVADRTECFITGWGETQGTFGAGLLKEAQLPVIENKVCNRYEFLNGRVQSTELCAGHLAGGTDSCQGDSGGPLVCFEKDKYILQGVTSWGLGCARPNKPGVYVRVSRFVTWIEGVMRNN
human plasma plasmin (Homo sapiens, UniProt P00747), sequence (P00747 98-580 partner limits assumed): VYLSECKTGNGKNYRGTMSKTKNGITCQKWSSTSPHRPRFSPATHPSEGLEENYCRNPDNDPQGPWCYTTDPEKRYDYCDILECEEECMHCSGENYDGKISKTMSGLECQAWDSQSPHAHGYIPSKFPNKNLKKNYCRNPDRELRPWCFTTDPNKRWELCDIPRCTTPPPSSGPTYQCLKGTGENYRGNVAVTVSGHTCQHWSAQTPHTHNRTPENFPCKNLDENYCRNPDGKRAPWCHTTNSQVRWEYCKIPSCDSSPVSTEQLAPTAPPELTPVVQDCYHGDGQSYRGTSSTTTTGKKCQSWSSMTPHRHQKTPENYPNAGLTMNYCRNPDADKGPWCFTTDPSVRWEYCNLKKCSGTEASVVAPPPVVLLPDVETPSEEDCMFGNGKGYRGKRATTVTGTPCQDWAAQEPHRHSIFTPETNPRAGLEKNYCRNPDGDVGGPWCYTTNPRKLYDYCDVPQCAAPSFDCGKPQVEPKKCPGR
Procedure: Preparation of the albumin conjugate: 4.00 mg of EMC-D-Ala-Phe-Lys-Lys(γ-MTX)-OH are dissolved in 8 mL of a 5% HSA solution (Octopharm) at room temperature and shaken at 37° C. for 2 hours. Subsequently, the sample is brought to a concentration of 700 μM by concentration with Centriprep® disposable concentrators.
Cleavage by plasmin: Now, 100 μL of the solution of the albumin conjugate are diluted with 500 μL buffer (4 mM sodium phosphate, 150 mM NaCl, pH 7.4), 20 μL of human plasma plasmin (370 mU) are added and the mixture is incubated at 37° C. The determination of the cleavage products is performed with the HPLC method described in Example 2 (FIGS. 3 and 4).

[6] = assay type: in vitro ADME, human
Procedure: Preparation of the Tumor Homogenate: The Tumor Material is Comminuted by Means of a scalpel, and 200 mg of the mass are homogenized in a shaker with 800 μL buffer (Tris-buffer pH 7.4) with addition of 3-4 glass beads. Subsequently, centrifugation is carried out at 4° C. and the supernatant is aliquoted to 200 μL.
Now, 100 μL of the solution of the albumin conjugate EMC-D-Ala-Phe-Lys-Lys(γ-MTX)-OH described in Example 4 are diluted with 500 μL of a homogenate solution (homogenate, 1:2 diluted with buffer [4 mM sodium phosphate, 150 mM NaCl, pH 7.4]) and incubated at 37° C. The determination of the cleavage products is performed with the HPLC method described in Example 2 (FIG. 7).

[7] = tested on: OVCAR-3 (ovarian carcinoma growing subcutaneously); assay: In vivo tumor-inhibiting properties, OVCAR-3 model; design: species or system nude mice NMRI; conditions: i.v. day 7, 14, 21, 28; dosage [mg/Kg] MTX equivalents: MTX 4 × 100, AW054-EMC 4 × 15, C175 3 × 15
Procedure: Animals: nude mice NMRI; tumor model: OVCAR-3 (ovarian carcinoma growing subcutaneously) Therapy: day 7, 14, 21, 28; i. v. (10 mM sodium phosphate/5% D-glucose buffer pH 6.4); dosages relate to methotrexate equivalents.

[8] = Cleavage experiments of the albumin conjugates, summary of the examples; assay type: in vitro ADME; conditions: after cleavage of the albumin conjugates
Procedure: It becomes evident from the examples that after incubation with human blood plasma, the corresponding albumin conjugate is substantially formed already after 2 min. […] The cleavage results in the formation of e.g. H-Lys(γ-MTX)-OH, which constitutes the only low-molecular cleavage product. […] In the case of the collagen-induced arthritis model, it is about 20% of the corresponding methotrexate equivalent dosage.

[9] = synovial fluid of six patients suffering from rheumatoid arthritis; conditions: human (patients suffering from rheumatoid arthritis), 37° C., up to four hours
[10] = human blood plasma; conditions: 37° C., up to 24 hours
[11] = tested on: collagen-induced arthritis model; assay: In vivo antirheumatic properties, collagen-induced arthritis model, therapy day 30-48; design: species or system mice (m, DBA/1); conditions: i.v. day 30, 34, 37, 41, 44, 48; dosage [mg/Kg] MTX equivalents: MTX 6 × 35, AW054-EMC 6 × 20
Procedure: Animals: mice (m, DBA/1; model: collagen-induced arthritis model) Therapy: day 30, 34, 37, 41, 44, 48; i. v. (10 mM sodium phosphate/5% D-glucose buffer pH 6.4); dosages relate to methotrexate equivalents.

[12] = tested on: collagen-induced arthritis model; assay: Collagen-induced arthritis model, therapy twice a week as of day 14, 42 or 30 (Table 1: early treatment protocol); assay type: in vivo, mice (m, DBA/1); conditions: 35 mg/kg, n = 15, early treatment protocol
Procedure: Animals: mice (m, DBA/1; model: collagen-induced arthritis model) Therapy: twice a week as of day 14, 42 and 30, respectively; i. v. (10 mM sodium phosphate/5% D-glucose buffer pH 6.4); dosages relate to methotrexate equivalents.

Compound: HSA-EMC-D-Ala-Phe-Lys-Lys(γ-MTX)-OH
- cleaved bond [1]: Lys-Lys, one and four hours, respectively
- cleaved bond [2]: Lys-Lys, one and four hours, respectively
- fragment found [3]: H-Lys(γ-MTX)-OH, four hours

Compound: CSCC[C@H](NC(=O)[C@H](Cc1ccccc1)NC(=O)[C@H](C)NC(=O)[C@H](CCCNC(=N)N)NC(=O)CCCCCN1C(=O)C=CC1=O)C(=O)N[C@@H](CCCCNC(=O)CC[C@H](NC(=O)c1ccc(N(C)Cc2cnc3nc(N)nc(N)c3n2)cc1)C(=O)O)C(=O)O [C162, EMC-Arg-Ala-Phe-Met-Lys(γ-MTX)-OH] ({Hexanoyl(6-maleimido)}-RAFMK([γGlu-DAMPA])-OH)
- bonding of the prodrug to HSA (albumin) in human plasma ([4]; 200 μM, 2 min incubation with human blood plasma at 37° C., HPLC detection at 300 or 370 nm): almost complete decrease of the prodrug peak
- bonding of the prodrug to albumin in plasma with blocked cysteine-34-group ([4]; human blood plasma incubated with EMC (1000 μM) in advance, detection 370 nm): does not show a bonding of the prodrug to albumin

Compound: HSA-EMC-D-Ala-Phe-Lys-Lys(γ-MTX)-OH ({HSA-Hexanoyl(6-maleimido)}-[dA]FKK(γ‑MTX)-OH)
- cleavage by plasmin [5]: formation of H-Lys(γ-MTX)-OH as a cleavage product
- cleavage in OVCAR-3 tumor homogenate [6]: formation of H-Lys(γ-MTX)-OH as a cleavage product can be observed

Compound: CSCC[C@H](NC(=O)[C@H](C)NC(=O)[C@H](CCCNC(=N)N)NC(=O)[C@H](CCCNC(=N)N)NC(=O)CCCCCN1C(=O)C=CC1=O)C(=O)N[C@@H](CCCCNC(=O)CC[C@H](NC(=O)c1ccc(N(C)Cc2cnc3nc(N)nc(N)c3n2)cc1)C(=O)O)C(=O)O [C175, EMC-Arg-Arg-Ala-Met-Lys(γ-MTX)-OH] ({Hexanoyl(6-maleimido)}-RRAMK([γGlu-DAMPA])-OH)
- change of body weight [%] [7]: +7%

Compound: CN(Cc1cnc2nc(N)nc(N)c2n1)c1ccc(C(=O)NC(CCC(=O)NCCCCC(N)C(=O)O)C(=O)O)cc1 (centres unmarked) [H-Lys(γ-MTX)-OH]
- further cleavage of the cleavage product into MTX and lysine [8]: not cleaved into MTX and lysine any more

Compound: EMC-Arg-Ala-Phe-Met-Lys(γ-MTX)-OH
- fragment found [9]: H-Lys(γ-MTX)-OH, four hours

Compound: EMC-D-Ala-Phe-Lys-Lys(γ-MTX)-OH ({Hexanoyl(6-maleimido)}-[dA]FKK([γGlu-DAMPA])-OH; SMILES C[C@@H](NC(=O)CCCCCN1C(=O)C=CC1=O)C(=O)N[C@@H](Cc1ccccc1)C(=O)N[C@@H](CCCCN)C(=O)N[C@@H](CCCCNC(=O)CC[C@H](NC(=O)c1ccc(N(C)Cc2cnc3nc(N)nc(N)c3n2)cc1)C(=O)O)C(=O)O)
- not cleaved [10]: loss of MTX is less than 10% after 24 hours

Compound: CN(Cc1cnc2nc(N)nc(N)c2n1)c1ccc(C(=O)N[C@@H](CCC(=O)O)C(=O)O)cc1 [MTX, Methotrexate]
- RA score Tag 55 [11]: 8.30
- change of body weight [%] [11]: +6.9%
- improved or achieved abatement after created disease, figure in parentheses (share of animals) [12]: (53)
- improved or achieved abatement after created disease, number of animals [12]: 8
- mean arthritis score at the end of the test [12]: 3.1
- mean period of time until breakout of renewed arthritis after beginning of treatment [12]: 17.3 days
- occurrence of arthritis at the end of the test (%) [12]: (60) %
- occurrence of arthritis at the end of the test, number of animals [12]: 9
- T/C [%] maximum [7]: 69%
- change of body weight [%] [7]: +19%

Compound: C[C@@H](NC(=O)CCCCCN1C(=O)C=CC1=O)C(=O)N[C@@H](Cc1ccccc1)C(=O)N[C@@H](CCCCN)C(=O)N[C@@H](CCCCNC(=O)CC[C@H](NC(=O)c1ccc(N(C)Cc2cnc3nc(N)nc(N)c3n2)cc1)C(=O)O)C(=O)O [AW054-EMC, EMC-D-Ala-Phe-Lys-Lys(γ-MTX)-OH] ({Hexanoyl(6-maleimido)}-[dA]FKK([γGlu-DAMPA])-OH)
- change of body weight [%] [11]: −0.2%
- change of body weight [%] [7]: +12%
